We go through 23 compounds from ChEMBL document CHEMBL3860070, “Optimization and biological evaluation of celastrol derivatives as Hsp90-Cdc37 interaction disruptors with improved druglike properties” (Bioorg Med Chem, 2016).

One series is filed under the species Homo sapiens. The experiment in a line: Inhibition of His-tagged full length Hsp90/GST-tagged Cdc37 middle domain (unknown origin) interaction at 50 uM after 1 hr by TR-FRET assay relative to control. (TR-FRET usually uses a lanthanide donor and a delayed reading to cut background.)
Series [1] can be described thus: Antiproliferative activity against human MCF7 cells assessed as reduction in cell viability after 48 hrs by MTT assay. It is filed as functional, cell-based. The conditions noted are these: MCF7, 48 h.
The nature of series [2]: Antiproliferative activity against human PANC1 cells assessed as reduction in cell viability after 48 hrs by MTT assay. Type of series: functional, cell-based. The settings on record: PANC-1, 48 h. Background: Formazan colour is commonly taken as a measure of viable cells.
Series [3] can be described thus: Antiproliferative activity against human A549 cells assessed as reduction in cell viability after 48 hrs by MTT assay. It is filed as functional, cell-based. The settings on record: A549, 48 h.
The nature of series [4]: Inhibition of His-tagged full length Hsp90/GST-tagged Cdc37 middle domain (unknown origin) interaction after 1 hr by TR-FRET assay. On the set-up: species or system Homo sapiens.
The nature of series [5]: Antiproliferative activity against paclitaxel-resistant human A549 cells assessed as reduction in cell viability after 48 hrs by MTT assay. It is filed as functional, cell-based. The settings on record: A549, 48 h.
The nature of series [6]: Permeability of the compound at pH 7.4 by PAMPA-based pION assay. It is filed as ADME. The settings on record: read-out: permeability. (In general: In PAMPA a lipid-coated filter parts donor from acceptor wells.)

What is called inhibition is the change of the read-out against control, counted positive when it falls. By IC50 is commonly meant the midpoint of a concentration-inhibition curve.

In the series listed under Homo sapiens, `CC1=C(O)C(=O)C=C2C1=CC=C1[C@@]2(C)CC[C@@]2(C)[C@@H]3C[C@](C)(C(=O)N4CCCCC4)CC[C@]3(C)CC[C@]12C` showed an inhibition of 54.8%. The IC50 in series [1] was determined as 1890 nM; in series [2] it was 2290 nM; in series [3], 1920 nM.

On to `CCOC(=O)[C@]1(C)CC[C@]2(C)CC[C@]3(C)C4=CC=C5C(=CC(=O)C(O)=C5C)[C@]4(C)CC[C@@]3(C)[C@@H]2C1`, for which, in the series filed under Homo sapiens, the inhibition is 54.8%. Also, the figures for the IC50 in series [1], in series [2] and in series [3] were 1760 nM, 1560 nM and 1970 nM, respectively.

For the compound `CC1=C(O)C(=O)C=C2C1=CC=C1[C@@]2(C)CC[C@@]2(C)[C@@H]3C[C@](C)(C(=O)NCCS(C)(=O)=O)CC[C@]3(C)CC[C@]12C`, the inhibition in the series filed under Homo sapiens was found to be 69.8%. Further, the figures for the half-maximal inhibitory concentration (IC50) in series [1], in series [2] and in series [3] were 1300 nM, 1200 nM and 2410 nM, respectively.

With `CC1=C(O)C(=O)C=C2C1=CC=C1[C@@]2(C)CC[C@@]2(C)[C@@H]3C[C@](C)(C(=O)O)CC[C@]3(C)CC[C@]12C` [CELASTROL], the inhibition in the series listed under Homo sapiens was 91.8%. Besides, the concentration for half-maximal inhibition (IC50) in series [4] worked out at 6490 nM; in series [1], 2130 nM; in series [2], 2480 nM; in series [3] it was 2020 nM; in series [5], 2010 nM. Moreover, in series [6], the Papp is 13.3 ×10⁻⁶ cm/s.

On to `CC1=C(O)C(=O)C=C2C1=CC=C1[C@@]2(C)CC[C@@]2(C)[C@@H]3C[C@](C)(C(=O)NCCN4CCCC4)CC[C@]3(C)CC[C@]12C`, for which the inhibition in the series filed under Homo sapiens worked out at 89.2%. The IC50 was 6500 nM in series [4], 1100 nM in series [1], 1030 nM in series [2] and 670 nM in series [3]. In addition, the Papp in series [6] was found to be 23 ×10⁻⁶ cm/s.

Consider `CNC(=O)[C@]1(C)CC[C@]2(C)CC[C@]3(C)C4=CC=C5C(=CC(=O)C(O)=C5C)[C@]4(C)CC[C@@]3(C)[C@@H]2C1`, for which, in the series listed under Homo sapiens, the inhibition is 69.2%. The IC50 in series [1] turned out to be 1200 nM; in series [2], 1420 nM; in series [3], 1930 nM.

In the series listed under Homo sapiens, `CCN(CC)CCNC(=O)[C@]1(C)CC[C@]2(C)CC[C@]3(C)C4=CC=C5C(=CC(=O)C(O)=C5C)[C@]4(C)CC[C@@]3(C)[C@@H]2C1` showed an inhibition of 94.5%. For the same compound, the IC50 in series [4] was 5740 nM; in series [1] it was 1030 nM; in series [2], 1270 nM; in series [3], 710 nM. Also, the Papp in series [6] stood at 53.1 ×10⁻⁶ cm/s.

As for `COC(=O)[C@]1(C)CC[C@]2(C)CC[C@]3(C)C4=CC=C5C(=CC(=O)C(O)=C5C)[C@]4(C)CC[C@@]3(C)[C@@H]2C1` [PRISTIMERIN], in the series listed under Homo sapiens, the inhibition was determined as 60.5%. Also, the IC50 in series [1] was determined as 1570 nM; in series [2], 1490 nM; in series [3] it was 1400 nM.

In the case of `CC1=C(O)C(=O)C=C2C1=CC=C1[C@@]2(C)CC[C@@]2(C)[C@@H]3C[C@](C)(C(=O)NCCCn4ccnc4)CC[C@]3(C)CC[C@]12C`, the inhibition in the series filed under Homo sapiens amounted to 71.7%. Further, the half-inhibitory concentration (IC50) in series [1] worked out at 1840 nM; in series [2], 1530 nM; in series [3], 3370 nM. In addition, the Papp in series [6] was determined as 0.6 ×10⁻⁶ cm/s.

The compound `CCCNC(=O)[C@]1(C)CC[C@]2(C)CC[C@]3(C)C4=CC=C5C(=CC(=O)C(O)=C5C)[C@]4(C)CC[C@@]3(C)[C@@H]2C1` had an inhibition in the series listed under Homo sapiens of 60%. For the same compound, the values for the IC50 in series [1], in series [2] and in series [3] were 2040 nM, 2370 nM and 2490 nM, respectively.

In the case of `CC1=C(O)C(=O)C=C2C1=CC=C1[C@@]2(C)CC[C@@]2(C)[C@@H]3C[C@](C)(C(=O)N4CCCC4)CC[C@]3(C)CC[C@]12C`, the inhibition in the series filed under Homo sapiens came to 56.4%. Besides, the figures for the IC50 in series [1], in series [2] and in series [3] were 1810 nM, 2110 nM and 2850 nM, respectively.

The compound `CC1=C(O)C(=O)C=C2C1=CC=C1[C@@]2(C)CC[C@@]2(C)[C@@H]3C[C@](C)(C(=O)NC(C)C)CC[C@]3(C)CC[C@]12C` returned an inhibition in the series filed under Homo sapiens of 60%. The IC50 amounted to 2550 nM in series [1], 2040 nM in series [2] and 2640 nM in series [3].

`CCCOC(=O)[C@]1(C)CC[C@]2(C)CC[C@]3(C)C4=CC=C5C(=CC(=O)C(O)=C5C)[C@]4(C)CC[C@@]3(C)[C@@H]2C1`: in the series filed under Homo sapiens, the inhibition is 44.9%. The IC50 in series [1] stood at 1520 nM; in series [2], 1310 nM; in series [3], 1740 nM.

Compound `CC1=C(O)C(=O)C=C2C1=CC=C1[C@@]2(C)CC[C@@]2(C)[C@@H]3C[C@](C)(C(=O)NCCN4CCOCC4)CC[C@]3(C)CC[C@]12C` returned an inhibition in the series filed under Homo sapiens of 77.2%. Moreover, the IC50 was 1340 nM in series [1], 1350 nM in series [2] and 1270 nM in series [3]. For the same compound, in series [6], the Papp was determined as 11.4 ×10⁻⁶ cm/s.

Consider `CCNC(=O)[C@]1(C)CC[C@]2(C)CC[C@]3(C)C4=CC=C5C(=CC(=O)C(O)=C5C)[C@]4(C)CC[C@@]3(C)[C@@H]2C1`, for which, in the series listed under Homo sapiens, the inhibition came out at 69%. For the same compound, the IC50 in series [1] amounted to 1430 nM; in series [2], 1820 nM; in series [3], 2080 nM.

Compound `CC1=C(O)C(=O)C=C2C1=CC=C1[C@@]2(C)CC[C@@]2(C)[C@@H]3C[C@](C)(C(=O)OCC(C)C)CC[C@]3(C)CC[C@]12C` registered an inhibition in the series filed under Homo sapiens of 28.4%. Besides, the IC50 is 2060 nM in series [1], 1900 nM in series [2] and 3420 nM in series [3].

Take `CC1=C(O)C(=O)C=C2C1=CC=C1[C@@]2(C)CC[C@@]2(C)[C@@H]3C[C@](C)(C(=O)N4CCCC(C)C4)CC[C@]3(C)CC[C@]12C` (stereo not given in full): the inhibition in the series listed under Homo sapiens turned out to be 47.9%. For the same compound, the concentration for half-maximal inhibition (IC50) in series [1] was 2030 nM; in series [2], 1840 nM; in series [3] it was 2430 nM.

As to `CC(=O)NCCNC(=O)[C@]1(C)CC[C@]2(C)CC[C@]3(C)C4=CC=C5C(=CC(=O)C(O)=C5C)[C@]4(C)CC[C@@]3(C)[C@@H]2C1`, the inhibition in the series filed under Homo sapiens stood at 70.5%. Moreover, the IC50 is 2260 nM in series [1], 3000 nM in series [2] and 3120 nM in series [3].

For the compound `CC1=C(O)C(=O)C=C2C1=CC=C1[C@@]2(C)CC[C@@]2(C)[C@@H]3C[C@](C)(C(=O)NCCN4CCCCC4)CC[C@]3(C)CC[C@]12C`, the inhibition in the series listed under Homo sapiens came out at 75.7%. Further, the IC50 in series [1] was 1180 nM; in series [2] it was 1250 nM; in series [3] it was 840 nM. Besides, the Papp in series [6] was 18.1 ×10⁻⁶ cm/s.

In turn, `CC1=C(O)C(=O)C=C2C1=CC=C1[C@@]2(C)CC[C@@]2(C)[C@@H]3C[C@](C)(C(=O)NCCN(C)C)CC[C@]3(C)CC[C@]12C` registered an inhibition in the series listed under Homo sapiens of 93.6%. In addition, the IC50 in series [4] is 5630 nM; in series [1], 640 nM; in series [2] it was 1230 nM; in series [3] it was 1080 nM. In series [6], the Papp came to 45 ×10⁻⁶ cm/s.

Regarding `CC1=C(O)C(=O)C=C2C1=CC=C1[C@@]2(C)CC[C@@]2(C)[C@@H]3C[C@](C)(C(=O)NCCN(C(C)C)C(C)C)CC[C@]3(C)CC[C@]12C`, the inhibition in the series filed under Homo sapiens worked out at 81.6%. Moreover, the IC50 stood at 1260 nM in series [1], 1050 nM in series [2] and 800 nM in series [3]. In addition, the Papp in series [6] came to 35.2 ×10⁻⁶ cm/s.

`CC1=C(O)C(=O)C=C2C1=CC=C1[C@@]2(C)CC[C@@]2(C)[C@@H]3C[C@](C)(C(=O)N(C)C)CC[C@]3(C)CC[C@]12C` returned an inhibition in the series listed under Homo sapiens of 60.6%. For the same compound, the IC50 amounted to 1430 nM in series [1], 2660 nM in series [2] and 1810 nM in series [3].

Compound `CC1=C(O)C(=O)C=C2C1=CC=C1[C@@]2(C)CC[C@@]2(C)[C@@H]3C[C@](C)(C(=O)OC(C)C)CC[C@]3(C)CC[C@]12C` displayed an inhibition in the series listed under Homo sapiens of 51.5%. For the same compound, the values for the IC50 in series [1], in series [2] and in series [3] were 1320 nM, 1360 nM and 2580 nM, respectively.
